Among the data in patent publication US20260356856A1, “KRAS G12S AND G12C INHIBITORS” (MIRATI THERAPEUTICS, INC., priority 2023, published 2026) are IC50 values, retold here.

SMILES strings stand for the structures.

Assay [1] has as its target T1, KRas-mediated phosphorylation of ERK in A549 cells (Homo sapiens, UniProt P01116, G12S).
T1 construct: pERK HTRF read-out
Nature of the assay: Inhibition of KRas-mediated phosphorylation of ERK (HTRF), A549 cells. The format is cell-based. As to conditions: HTRF pERK, 3 h incubation. In general terms: TR-FRET usually uses a lanthanide donor and a delayed reading to cut background.

A further assay deals with T2, KRas G12C (Homo sapiens, UniProt P01116, G12C).
T2 construct: Biotinylated KRas (corresponding to amino acids 1-169, produced at Accelegan Inc.); biotin (biotinylated); purchased Accelegan Inc
T2 sequence (P01116 1-169 isoform P01116-2 G12C): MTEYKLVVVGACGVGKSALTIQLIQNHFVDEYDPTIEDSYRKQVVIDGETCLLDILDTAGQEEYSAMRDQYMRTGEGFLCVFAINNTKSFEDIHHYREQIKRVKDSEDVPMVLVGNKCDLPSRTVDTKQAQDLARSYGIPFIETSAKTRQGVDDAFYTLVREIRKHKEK
In words: KRas binding assay, TR-FRET displacement of Cy5 labelled tracer. Conditions: 60-minute incubation at room temperature, 1% DMSO, pH 7.5. The essentials: (§1)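 Room-temperature incubation (60 min) of compound with biotinylated KRas 1-169, tracer and Tb-streptavidin preceded the TR-FRET read. Final DMSO was 1%; buffer pH 7.5. Percent-of-control values went into a 4-parameter equation to give IC50.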

For a further assay, the target named is T3, KRas G12S (Homo sapiens, UniProt P01116, G12S).
T3 construct: Biotinylated KRas (corresponding to amino acids 1-169, produced at Accelegan Inc.); biotin (biotinylated); purchased Accelegan Inc
T3 sequence (P01116 1-169 isoform P01116-2 G12S): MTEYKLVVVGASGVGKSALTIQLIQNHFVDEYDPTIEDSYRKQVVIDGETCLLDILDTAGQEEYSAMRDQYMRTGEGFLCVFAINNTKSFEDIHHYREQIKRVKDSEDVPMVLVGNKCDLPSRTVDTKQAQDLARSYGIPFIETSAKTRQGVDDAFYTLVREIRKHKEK
Described as above. As to conditions: 60-minute incubation at room temperature, 1% DMSO, pH 7.5. The essentials: as §1

Another assay deals with T4, KRas WT (Homo sapiens, UniProt P01116).
T4 construct: Biotinylated KRas (corresponding to amino acids 1-169, produced at Accelegan Inc.); biotin (biotinylated); purchased Accelegan Inc
T4 sequence (P01116 1-169 isoform P01116-2): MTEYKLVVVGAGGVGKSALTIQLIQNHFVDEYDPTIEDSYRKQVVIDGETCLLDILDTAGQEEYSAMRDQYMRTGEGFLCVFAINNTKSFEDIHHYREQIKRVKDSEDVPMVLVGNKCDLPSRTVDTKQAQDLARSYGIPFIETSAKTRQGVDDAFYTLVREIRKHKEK
The assay is described as above. As to conditions: 60-minute incubation at room temperature, 1% DMSO, pH 7.5. The essentials:
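IC50 came from fitting POC values with a four-parameter equation. Signal was read after one hour at room temperature. Protein was biotin-tagged KRas 1-169 captured by terbium streptavidin, with compound in 1% DMSO (final).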

The target of assay [2] is T5, KRas-mediated phosphorylation of ERK in MKN1 cells (Homo sapiens, UniProt P01116).
T5 construct: pERK HTRF read-out
T5 sequence (P01116 1-188 isoform P01116-2): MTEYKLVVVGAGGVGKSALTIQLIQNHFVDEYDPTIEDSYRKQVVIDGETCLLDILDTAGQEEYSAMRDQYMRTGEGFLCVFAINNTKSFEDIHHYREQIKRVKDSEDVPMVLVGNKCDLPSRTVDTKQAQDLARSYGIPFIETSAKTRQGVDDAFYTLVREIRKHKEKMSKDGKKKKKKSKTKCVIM
In words: Inhibition of KRas-mediated phosphorylation of ERK (HTRF), MKN1 cells. Conditions: MKN1 cells (KRas WT); HTRF pERK; 3 h incubation. It is filed as cell-based. The procedure:
Inhibition of KRas Phosphorylation of ERK (HTRF) by Exemplary Compounds of Formula (Ia) or (Ib)
Cisbio HTRF Advanced pERK Assay Catalog #64AERPEH • Cells: MKN1, PSN1 • Procedure: • 1. Day 1: Seed 6,000 cells/well −25 μl/well in 384-well white solid bottom plate; RPM1_10% FBS. Incubate overnight at 37 °C/5% CO2. • 2.

The target in assay [3] is T6, KRas-mediated phosphorylation of ERK in H358 cells (Homo sapiens, UniProt P01116, G12C).
T6 construct: pERK HTRF read-out
T6 sequence (P01116 1-188 isoform P01116-2 G12C): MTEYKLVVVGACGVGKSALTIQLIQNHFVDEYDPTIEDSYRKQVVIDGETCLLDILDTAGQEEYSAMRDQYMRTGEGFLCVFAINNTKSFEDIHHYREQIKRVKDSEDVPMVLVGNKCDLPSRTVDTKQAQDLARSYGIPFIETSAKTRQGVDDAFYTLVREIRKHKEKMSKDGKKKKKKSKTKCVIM
Nature of the assay: Inhibition of KRas-mediated phosphorylation of ERK (HTRF), H358 cells. It is filed as cell-based. As to conditions: HTRF pERK, 3 h incubation.

T1 sequence (P01116 1-188 isoform P01116-2 G12S): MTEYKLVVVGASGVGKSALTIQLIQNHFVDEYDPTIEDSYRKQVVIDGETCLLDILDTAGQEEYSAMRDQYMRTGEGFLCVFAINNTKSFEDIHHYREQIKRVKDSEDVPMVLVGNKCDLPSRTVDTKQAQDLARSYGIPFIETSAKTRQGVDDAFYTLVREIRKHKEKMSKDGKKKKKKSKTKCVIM

In the case of `Cn1ccc(COC(=O)C2CCN(c3nc(OC[C@@]45CCCN4C[C@H](F)C5)nc4c(F)c(-c5ccc(F)c6sc(N)c(C#N)c56)c(Cl)cc34)CC2)n1` [Example 245, (1-methyl-1H-pyrazol-3-yl)methyl 1-(7-(2-amino-3-cyano-7-fluorobenzo[b]thiophen-4-yl)-6-chloro-8-fluoro-2-(((2R,7aS)-2-fluorotetrahydro-1H-pyrrolizin-7a(5H)-yl)methoxy)quinazolin-4-yl)piperidine-4-carboxylate], the IC50 worked out at 148 nM in assay [1]; 12 nM at KRas G12C; 8 nM on KRas G12S; 6 nM on KRas WT; 15 nM in assay [2]; 148 nM in assay [3].

On to `N#Cc1c(N)sc2c(F)ccc(-c3c(Cl)cc4c(N5CCC(C(=O)N6CCCC6)CC5)nc(OC[C@@]56CCCN5C[C@H](F)C6)nc4c3F)c12` [Example 246, 2-amino-4-(6-chloro-8-fluoro-2-(((2R,7aS)-2-fluorotetrahydro-1H-pyrrolizin-7a(5H)-yl)methoxy)-4-(4-(pyrrolidine-1-carbonyl)piperidin-1-yl)quinazolin-7-yl)-7-fluorobenzo [b]thiophene-3-carbonitrile], for which the IC50 was found to be 223 nM in assay [1]; 13 nM on KRas G12C; 14 nM on KRas G12S; 8 nM at KRas WT; 24 nM in assay [2]; 167 nM in assay [3].

In the case of `N#Cc1c(N)sc2c(F)ccc(-c3c(Cl)cc4c(N5CCC(C(=O)N6C7CCC6COC7)CC5)nc(OC[C@@]56CCCN5C[C@H](F)C6)nc4c3F)c12` [Example 247, 4-(4-(4-(3-oxa-8-azabicyclo[3.2.1]octane-8-carbonyl)piperidin-1-yl)-6-chloro-8-fluoro-2-(((2R,7aS)-2-fluorotetrahydro-1H-pyrrolizin-7a(5H)-yl)methoxy)quinazolin-7-yl)-2-amino-7-fluorobenzo[b]thiophene-3-carbonitrile], the 50% inhibitory concentration (IC50) in assay [1] is 677 nM; on KRas G12C, 21 nM; at KRas G12S, 24 nM; on KRas WT, 12 nM; in assay [2] it was 61 nM; in assay [3], 296 nM.

With `Cc1ccn(C(=O)C2CCCN(c3nc(OC[C@@]45CCCN4C[C@H](F)C5)nc4c(F)c(-c5c(C#N)c(N)cc(C)c5C(F)(F)F)c(Cl)cc34)CC2)n1` (stereo partly drawn) [Example 248, 6-amino-2-(6-chloro-8-fluoro-2-(((2R,7aS)-2-fluorotetrahydro-1H-pyrrolizin-7a(5H)-yl)methoxy)-4-(4-(3-methyl-1H-pyrazole-1-carbonyl)azepan-1-yl)quinazolin-7-yl)-4-methyl-3-(trifluoromethyl)benzonitrile], the IC50 in assay [1] worked out at 100 nM; at KRas G12C, 360 nM; at KRas G12S it was 57 nM; at KRas WT, 669 nM; in assay [2], 2920 nM; in assay [3], 4220 nM.

Turning to `CN(CCNC(=O)n1ccnn1)c1nc(OC[C@@]23CCCN2C[C@H](F)C3)nc2c(F)c(-c3ccc(F)c4sc(N)c(C#N)c34)c(Cl)cc12` [Example 249, N-(2-((7-(2-amino-3-cyano-7-fluorobenzo[b]thiophen-4-yl)-6-chloro-8-fluoro-2-(((2R,7aS)-2-fluorotetrahydro-1H-pyrrolizin-7a(5H)-yl)methoxy)quinazolin-4-yl)(methyl)amino)ethyl)-1H-1,2,3-triazole-1-carboxamide], the IC50 was 249 nM in assay [1]; below 2 nM at KRas G12C; 7 nM at KRas G12S; 11 nM at KRas WT; 223 nM in assay [2]; 2 nM in assay [3].

In general, IC50 refers to the concentration that gives 50% inhibition.
